Measured values taken from patent publication US11330999B2 (MEMORIAL SLOAN KETTERING CANCER CENTER, priority 2017, dated 2022).

Key:
[1] = Hyperpolarized T1 at 1T after dissolution in buffered H2O or D2O; type: physicochemical
Procedure: Each compound was prepared with a different formulation, as follows: [5-^13C]- and [5-^13C, ^15N]-glutamine was mixed with 1.1 equivalent HCl and dissolved to a final concentration of 1.5 Min H2O:DMSO (65:35). [^13C]— and [^13C, ^15N2]-urea was dissolved to a final concentration of 6M in glycerol. [6-^13C]- and [6-^13C, ^15N3]-arginine was mixed with 1 equivalent HCl and dissolved to a final concentration of 3.2M in H2O. Each of these preparations also contained OX063 radical (General Electric, UK) dissolved to a final concentration of 15 mM. [^13C]—/[^13C, ^15N2]-urea and [6-^13C]-/[6-^13C, ^15N3]-arginine samples were polarized in a 3.35T SpinLab Polarizer (General Electric, UK) for 1.5 hours (0.83K, 93.98 GHz), while: [5-^13C]-/[^13C, ^15N]-glutamine samples were polarized in a 5T SpinLab Polarizer for 2 hours (0.83K, 93.98 GHz). Following polarization, the HP substrate was ejected from the polarizer via rapid dissolution, during which a superheated solution of 100 mM Tris 1 mM EDTA in pH 7.4 H2O or pD 7.4 D2O is run through the sample vial to dissolve the polarized substrate and eject it into a pre-chilled glass vial (−20° C.).

[2] = In vivo 13C EPI imaging of hyperpolarized urea in mouse; settings: healthy female Balb/c mouse, monitored for 30 minutes
Procedure: Hyperpolarized [^13C, ^15N2]-urea was studied under clinical imaging conditions. A healthy female Balb/c mouse (12 weeks old) was injected with identical volumes of hyperpolarized [^13C, ^15N]-urea dissolved in either buffered D2O or H2O (FIG. 9A). Both samples were polarized for similar amounts of time and were dissolved to similar final concentrations. Immediately following the end of the injection, an axial 2D ^13C echo-planar imaging (EPI) sequence was initiated with a 3 s repetition time, 16×16 resolution with 2.25 mm×2.25 mm×10 mm voxels.

[3] = Thermal equilibrium T2 at high field (14.1T), CPMG; type: physicochemical
Procedure: (§1) [5-^13C]-glutamine (Cambridge Isotope Laboratories), [^13C]-urea (Sigma Aldrich), [^13C, ^15N2]-urea (Sigma Aldrich), [6-^13C]-arginine (Cambridge Isotope Laboratories), [5-^13C, ^15N]-glutamine (24) (24, as described in Example 7) and [6-^13C, ^15N3]-arginine (21, as described in Example 2) were evaluated to determine thermal equilibrium T1 and T2. An aliquot of each compound was dissolved in 95:5 D2O:H2O containing 100 mM Tris pD 7.4 and 100% H2O containing 100 mM Tris pH 7.4. [^13C]-urea and [^13C, ^15N2]-urea were dissolved to a final concentration of 100 mM.
(§2) ^13C NMR spectra for each compound dissolved in 95:5 D2O:H2O and 100% H2O was obtained with a 14.1T ^13C NMR (Bruker, USA). For inversion recovery experiments, 13 to 15 different delay times between the 180° and 90° pulses, spanning 3T1, were sampled. Each spectrum was an average of 3 to 4 scans, and a 5T1 to 6T1 pre-scan wait time was used to allow re-polarization of carbon nuclear spins between scans. T2 values were measured using a Carr-Purcell-Meiboom-Gill (CPMG) sequence for each compound dissolved in 95:5 D2O:H2O and 100% H2O. A 10 ms (or 5 ms ^13C-urea samples) wait-time between 180° pulses was used, and signal was acquired at total echo times spanning 3T2. For both T1- and T2-relaxation curve fitting, spectra were imported into Mnova (Mestrelabs, USA) and the area under the curve (AUC) of the ^13C resonance of interest was integrated. AUC values were exported to Prism 7 (GraphPad Software, USA), plotted against time on the x-axis, and data points were fit to the Bloch equations for T1 and T2.
(§3) When each compound was dissolved in D2O, the exchangeable protons on the nitrogen atoms rapidly exchange with deuterium in the solvent. As described in Table 1, at high field, each compound having protons exchanged with deuterium extended the T1 of ^13C relaxation times directly bonded to —NH or —NH2 residues, respectively. This effect is further illustrated for [6-^13C]-/[6-^13C, ^15N3]-arginine in FIG. 7.

[4] = Thermal equilibrium T1 at high field (14.1T), inversion recovery; type: physicochemical
Procedure: as §1, §2, §3

[5] = 95:5 D2O:H2O, 100 mM Tris pD 7.4

For `[15NH2][13C]([15NH2])=O` [Urea ^13C, ^15N2, [^13C, ^15N2]-urea], the “Hyperpolarized T1 Value (s) D2O” value ([1]; dissolution in 100 mM Tris 1 mM EDTA pD 7.4 D2O) was 115.9 ± 8.5 s, the “Hyperpolarized T1 Value (s) H2O” value ([1]; dissolution in 100 mM Tris 1 mM EDTA pH 7.4 H2O) was 53.3 ± 2.6 s and the “morbidity after the two injections” value [2] was “no obvious morbidity”. The “T2 Value (s) D2O” value [3, 5] was 34.61 ± 0.64 s, the “T2 Value (s) H2O” value ([3]; 100% H2O, 100 mM Tris pH 7.4) was 20.12 ± 0.17 s and the “T1 Value (s) D2O” value [4, 5] was 57.34 ± 2.04 s. The “T1 Value (s) H2O” value ([4]; 100% H2O, 100 mM Tris pH 7.4) was 31.97 ± 1.38 s.
